Laboratory results: PubChem BioAssay AID248 (DTP/NCI, 2004)
Several values for one entry are separate records, joined by “and”; a condition that tells them apart may be missing. Equal values may be shown once. Toxic doses and inconclusive results are not listed. No stated cut-off is given here; in the data, active means T/C of 150% or more; inactive means T/C below 125%.

System: L1210 leukemia ip in BDF1 mice, survival T/C
Test: NCI In Vivo Anticancer Drug Screen. Data for tumor model L1210 Leukemia (intraperitoneal) in B6D2F1 (BDF1) mice
Conditions: endpoint: mean survival time, higher = longer survival
How it was run: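 Read-out is survival time, reported as the treated-group measurement over the vehicle-control measurement.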

[1] = dose: 100.0 mg/kg/injection, schedule: Q01DX009 (ip), vehicle: saline
[2] = dose: 200.0 mg/kg/injection, schedule: Q01DX009 (ip), vehicle: saline
[3] = dose: 400.0 mg/kg/injection, schedule: Q01DX009 (ip), vehicle: saline
[4] = dose: 100.0 mg/kg/injection, schedule: Q01DX009 (ip), vehicle: Klucel (hydroxypropylcellulose) (HPC)
[5] = dose: 200.0 mg/kg/injection, schedule: Q01DX009 (ip), vehicle: Klucel (hydroxypropylcellulose) (HPC)
[6] = dose: 400.0 mg/kg/injection, schedule: Q01DX009 (ip), vehicle: Klucel (hydroxypropylcellulose) (HPC)
[7] = dose: 100.0 mg/kg/injection, schedule: Q04DX002 (ip), vehicle: saline with Tween-80
[8] = dose: 200.0 mg/kg/injection, schedule: Q04DX002 (ip), vehicle: saline with Tween-80
[9] = dose: 400.0 mg/kg/injection, schedule: Q04DX002 (ip), vehicle: saline with Tween-80
[10] = dose: 100.0 mg/kg/injection, schedule: Q01DX001 (ip), vehicle: saline
[11] = dose: 50.0 mg/kg/injection, schedule: Q01DX009 (ip), vehicle: saline with Tween-80
[12] = dose: 100.0 mg/kg/injection, schedule: Q04DX003 (ip), vehicle: Klucel (hydroxypropylcellulose) (HPC)
[13] = dose: 200.0 mg/kg/injection, schedule: Q04DX003 (ip), vehicle: Klucel (hydroxypropylcellulose) (HPC)
[14] = dose: 400.0 mg/kg/injection, schedule: Q04DX003 (ip), vehicle: Klucel (hydroxypropylcellulose) (HPC)
[15] = dose: 100.0 mg/kg/injection, schedule: Q01DX001 (ip), vehicle: saline with Tween-80
[16] = dose: 200.0 mg/kg/injection, schedule: Q01DX001 (ip), vehicle: saline with Tween-80
[17] = dose: 400.0 mg/kg/injection, schedule: Q01DX001 (ip), vehicle: saline with Tween-80
[18] = dose: 100.0 mg/kg/injection, schedule: Q04DX003 (ip), vehicle: saline with Tween-80
[19] = dose: 200.0 mg/kg/injection, schedule: Q04DX003 (ip), vehicle: saline with Tween-80
[20] = dose: 400.0 mg/kg/injection, schedule: Q04DX003 (ip), vehicle: saline with Tween-80

Measured: T/C

C=CCS(=O)(=O)c1ccccc1
inactive: [1] 106 % of control | [2] 98 % of control | [3] 101 % of control

C=CCNC(=S)Nc1ccc(O)cc1
inactive: [4] 91 % of control | [5] 97 % of control | [6] 96 % of control

Nc1ccc(S(=O)(=O)O)cc1[N+](=O)[O-]
inactive: dose: 100.0 mg/kg/injection, schedule: Q04DX003 (ip), vehicle: saline 93 % of control | dose: 200.0 mg/kg/injection, schedule: Q04DX003 (ip), vehicle: saline 95 % of control | dose: 400.0 mg/kg/injection, schedule: Q04DX003 (ip), vehicle: saline 96 % of control

O=[N+]([O-])C1CCC(C2=CSC3CCCCC3N2)CC1 (stereo not drawn)
inactive: [7] 90 % of control | [8] 101 % of control | [9] 116 % of control

CCCOC(=O)c1cncn1C(C)c1ccccc1 (stereo not drawn)
inactive: dose: 25.0 mg/kg/injection, schedule: Q01DX001 (ip), vehicle: saline 98 % of control | dose: 50.0 mg/kg/injection, schedule: Q01DX001 (ip), vehicle: saline 96 % of control | [10] 94 % of control

O=S(=O)(O)c1ccc(-c2nc(-c3ccccc3)c(-c3ccccc3)[nH]2)cc1
inactive: [1] 102 % of control | [2] 102 % of control | [3] 101 % of control

CCOC(=O)c1cc(Cl)cc(Cl)c1N/N=[N+](\C)[O-]
inactive: [11] 117 % of control | dose: 100.0 mg/kg/injection, schedule: Q01DX009 (ip), vehicle: saline with Tween-80 87 % of control | dose: 200.0 mg/kg/injection, schedule: Q01DX009 (ip), vehicle: saline with Tween-80 93 % of control

CC1(C)N=C(N)N=C(N)N1c1ccc(OCCCNS(=O)(=O)c2ccc(S(=O)(=O)F)cc2)c(Cl)c1
inactive: dose: 37.5 mg/kg/injection, schedule: Q04DX003 (ip), vehicle: saline with Tween-80 103 % of control | dose: 75.0 mg/kg/injection, schedule: Q04DX003 (ip), vehicle: saline with Tween-80 108 % of control | dose: 150.0 mg/kg/injection, schedule: Q04DX003 (ip), vehicle: saline with Tween-80 107 % of control

CCOC(=O)C1(C(=O)OCC)CC(=O)c2c(OC)ccc(OC)c2C1
inactive: dose: 12.5 mg/kg/injection, schedule: Q04DX003 (ip), vehicle: Klucel (hydroxypropylcellulose) (HPC) 94 % of control | dose: 25.0 mg/kg/injection, schedule: Q04DX003 (ip), vehicle: Klucel (hydroxypropylcellulose) (HPC) 105 % of control | dose: 50.0 mg/kg/injection, schedule: Q04DX003 (ip), vehicle: Klucel (hydroxypropylcellulose) (HPC) 98 % of control | dose: 100.0 mg/kg/injection, schedule: Q01DX001 (ip), vehicle: Klucel (hydroxypropylcellulose) (HPC) 98 % of control | [12] 95 % of control | dose: 200.0 mg/kg/injection, schedule: Q01DX001 (ip), vehicle: Klucel (hydroxypropylcellulose) (HPC) 98 % of control | [13] 103 % of control | dose: 400.0 mg/kg/injection, schedule: Q01DX001 (ip), vehicle: Klucel (hydroxypropylcellulose) (HPC) 106 % of control | [14] 111 % of control

CCOC(=O)C(C#N)C(C)CC (stereo not drawn)
inactive: [4] 102 % of control | [12] 98 % of control | [5] 98 % of control | [13] 102 % of control | [6] 94 % of control | [14] 90 % of control

CCCCOB(CCl)OCCCC
inactive: dose: 6.25 mg/kg/injection, schedule: Q04DX003 (ip), vehicle: saline sonified 103 % of control | dose: 12.5 mg/kg/injection, schedule: Q04DX003 (ip), vehicle: saline sonified 97 % of control | dose: 25.0 mg/kg/injection, schedule: Q04DX003 (ip), vehicle: saline sonified 100 % of control

COc1ccc(C(=O)OCc2ccccc2CN2CCOCC2)cc1
inactive: dose: 100.0 mg/kg/injection, schedule: Q04DX002 (ip), vehicle: Klucel (hydroxypropylcellulose) (HPC) 95 % of control | dose: 200.0 mg/kg/injection, schedule: Q04DX002 (ip), vehicle: Klucel (hydroxypropylcellulose) (HPC) 95 % of control | dose: 400.0 mg/kg/injection, schedule: Q04DX002 (ip), vehicle: Klucel (hydroxypropylcellulose) (HPC) 95 % of control

COc1cc2c(cc1OC)C1CCc3cc4c(cc3C1N=C2)OCO4 (stereo not drawn)
inactive: dose: 80.0 mg/kg/injection, schedule: Q01DX009 (ip), vehicle: saline 96 % of control | dose: 120.0 mg/kg/injection, schedule: Q01DX009 (ip), vehicle: saline 98 % of control | dose: 240.0 mg/kg/injection, schedule: Q01DX009 (ip), vehicle: saline 98 % of control | [3] 91 % of control

O=C(c1ccccc1)c1ccc2c3c(cccc13)C(=O)c1ccccc1-2
inactive: [15] 92 % of control | [16] 92 % of control | [17] 88 % of control

CC(=O)C(=O)Nc1ccccc1
inactive: [15] 94 % of control | [16] 91 % of control | [17] 94 % of control

S=C(S)NCCCNC(=S)S
inactive: [10] 98 % of control and 103 % of control | dose: 200.0 mg/kg/injection, schedule: Q01DX001 (ip), vehicle: saline 95 % of control and 100 % of control | dose: 400.0 mg/kg/injection, schedule: Q01DX001 (ip), vehicle: saline 95 % of control

O=S(=O)(O)c1ccc(Cl)cc1
inactive: [18] 96 % of control | [19] 104 % of control | [20] 106 % of control

O=C(CCc1ccccc1)c1ccccc1
inactive: [7] 97 % of control | [8] 97 % of control | [9] 90 % of control

Cc1cccc2c(C(=O)O)cc(-c3ccc(Cl)cc3)nc12
inactive: [11] 91 % of control

Fc1c(F)c(F)c(Oc2c(F)c(F)c(P(c3c(F)c(F)c(Oc4c(F)c(F)c(F)c(F)c4F)c(F)c3F)c3c(F)c(F)c(Oc4c(F)c(F)c(F)c(F)c4F)c(F)c3F)c(F)c2F)c(F)c1F
inactive: dose: 75.0 mg/kg/injection, schedule: Q04DX003 (ip), vehicle: Klucel (hydroxypropylcellulose) (HPC) 104 % of control | dose: 150.0 mg/kg/injection, schedule: Q04DX003 (ip), vehicle: Klucel (hydroxypropylcellulose) (HPC) 91 % of control | dose: 300.0 mg/kg/injection, schedule: Q04DX003 (ip), vehicle: Klucel (hydroxypropylcellulose) (HPC) 90 % of control

Clc1cccc(Cl)c1Br
inactive: [4] 100 % of control | [18] 108 % of control | [5] 100 % of control | [19] 104 % of control | [6] 105 % of control | [20] 98 % of control

Nc1cncnc1N
inactive: dose: 30.0 mg/kg/injection, schedule: Q01DX Z (ip), vehicle: saline 101 % of control | dose: 60.0 mg/kg/injection, schedule: Q01DX Z (ip), vehicle: saline 103 % of control | dose: 120.0 mg/kg/injection, schedule: Q01DX Z (ip), vehicle: saline 100 % of control | dose: 240.0 mg/kg/injection, schedule: Q01DX Z (ip), vehicle: saline 97 % of control

O=C(O)C1CCC1(C(=O)O)C(=O)O (stereo not drawn)
inactive: dose: 100.0 mg/kg/injection, schedule: Q04DX002 (ip), vehicle: saline 94 % of control | dose: 200.0 mg/kg/injection, schedule: Q04DX002 (ip), vehicle: saline 90 % of control | dose: 400.0 mg/kg/injection, schedule: Q04DX002 (ip), vehicle: saline 94 % of control

O=C(c1ccccc1)c1c2ccccc2c(Br)c2ccccc12
inactive: [4] 97 % of control | [12] 100 % of control | [5] 96 % of control | [13] 95 % of control | [6] 91 % of control | [14] 89 % of control

O=C1/C(=C/c2ccncc2)CCc2cc(Cl)ccc21
inactive: dose: 100.0 mg/kg/injection, schedule: Q04DX003 (ip), vehicle: carboxymethylcellulose (CMC) 107 % of control | dose: 200.0 mg/kg/injection, schedule: Q04DX003 (ip), vehicle: carboxymethylcellulose (CMC) 111 % of control | dose: 400.0 mg/kg/injection, schedule: Q04DX003 (ip), vehicle: carboxymethylcellulose (CMC) 96 % of control

C=C(C)CCC1C(=O)N(c2ccccc2)N(c2ccccc2)C1=O
inactive: dose: 25.0 mg/kg/injection, schedule: Q01DX009 (ip), vehicle: Klucel (hydroxypropylcellulose) (HPC) 103 % of control | dose: 50.0 mg/kg/injection, schedule: Q01DX009 (ip), vehicle: Klucel (hydroxypropylcellulose) (HPC) 95 % of control | [4] 100 % of control
